From US6462184B2, “Compounds, processes and intermediates for synthesis of mixed backbone oligomeric compounds” (ISIS Pharmaceuticals, Inc., priority 1999, dated 2002)
[PN] = dimethylaminoethyl (DMAE) phosphoramidate internucleoside linkage; e = 2'-O-(2-methoxyethyl) (MOE); d = 2'-deoxy (DNA)

Experiments:
c-raf mRNA = c-raf mRNA expression in A549 cells; type: cell-based, human; details: between 50-400 nM range
Description: Gapmers designed in this study are based on the parent sequence of ATGCATTCTGCCCCCAAGGA (SEQ ID No:9) which is a uniform deoxy phosphorothioate. This sequence is an antisense oligomeric compound targeted to mouse c-raf. c-raf m-RNA expression assay was carried out according to a reported procedure (Monia et al., Nature Medicinek, 1996, 2, 668). Human A549 lung carcinoma cells were obtained from the American Type Tissue Collection. These were grown in Dulbecco's modified Eagle's medium containing 1 g of glucose/liter (DMEM) and FCS (10%) and routinely passaged when 90-95% confluent.
Assay for Oligonucleoside Inhibition of c-raf Protein Synthesis: A549 cells were plated in 6-well plates (Falcon Labware, Lincoln Park, N.J.) and 24-48 hours later (when 80-90% confluent) treated with 1 μM phorbol 12,13-dibutyrate (PDBu) for 18 hours. This procedure removes greater than 75% of immunoreactive c-rafprotein from the cells. Cells were then washed three times with DMEM (3 mL) (to remove PDBu), and DMEM (1 mL) containing DOTMA/DOPE solution (20 μg/mL, LipofectinR, Bethesda Research Laboratories) was added. Oligonucleoside gapmers were then added to the required concentration (for our initial screen, 1 μM) from a 10 μM stock solution, and the two solutions were mixed by swirling of the dish. The cells were incubated at 37° C. for 4 hours, washed once with DMEM+FCS (10%) to remove the DOTMA/DOPE solution, and then additional DMEM (3 mL)+10% FCS was added and the cells were allowed to recover for another 10 hours. Total RNA is prepared 24 hours after the experiment and analyzed for c-raf and G3PDH mRNA levels after normalization to G3PDH mRNA.

ICAM-1 = ICAM-1 expression in HUVEC cells (flow cytometry); type: cell-based, human
Description: Targeted oligomeric compounds were prepared and assayed using HUVEC cells to determine their ability to inhibit the expression of ICAM-1. HUVEC cells were washed three times with Opti-MEM (Life Technologies, Inc.) that was prewarmed to 37° C. Oligomeric compounds were premixed with Lipofectin (10 μg/mL, Life Technologies, Inc.) in Opti-MEM, serially diluted to the desired concentrations, and applied to washed cells. Basal and untreated (no oligomeric compounds added) control cells were also treated with Lipofectin. Cells were incubated for 4 hours at 37° C., at which time the medium was removed and replaced with standard growth medium with or without TNF-a ([…], R&D Systems). Incubation at 37° C. was continued for different times as indicated below.
A fluorescence-activated cell sorter was used to quantitate ICAM-1 protein expression. The cells were removed from the plate surface by brief trypsinization with trypsin (0.25%) in PBS. Trypsin activity was quenched with a solution of bovine serum albumin (2%) and sodium azide (0.2%) in PBS (+Mg/Ca). […]
Expression of cell surface ICAM-1 was determined by flow cytometry using a Becton Dickinson FACScan. The percentage of ICAM-1 expression in the control was calculated as follows: [(oligomeric compound-treated ICAM-1 value)−(basal ICAM-1 value)/(non-treated ICAM-1 value)−(basal ICAM-1 value))].

A*T*G* C*A*T*S TSCSTS GSCSCS CSCSC* A*A*G* G*A* (antisense ATGCATTCTGCCCCCAAGGA; 2'-MOE gapmer with mixed PO/PS backbone, marks not given here, further chemistry not given here) [SEQ ID No 9, 2'-MOE gapmer with PO-PS-PO mixed backbone, 20-mer, antisense to c-raf]
c-raf mRNA expression inhibition (c-raf mRNA): dose dependent manner

A*NT*NG* C*A*T*S TSCSTS GSCSCS CSCSC* A*A*G*N G*NA* (antisense ATGCATTCTGCCCCCAAGGA; 2'-MOE gapmer, mixed PN/PO/PS backbone, chemistry not fully specified) [SEQ ID No 11, 2'-MOE gapmer with PN-PO-PS-PO-PN mixed backbone, 20-mer]
controlling ICAM-1 expression (ICAM-1; HUVEC cells (printed HWEC), compound synthesized by amidite chemistry and same compound by H-phosphonate chemistry): efficacious
inhibiting ICAM-1 expression (ICAM-1; between 3 and 100 nM range, both compounds synthesized from different chemistries): display dose response

T*NT*NT*S GSASCS ASCSGS GSCSAS CSCSAS T*ST*NT*N T* (antisense TTTGACACGGCACCATTTT; sugars from the 5' end e3 d12 e4, linkages [PN]2 s14 [PN]2 (s phosphorothioate, o phosphodiester), methylation of C not given here) [SEQ ID No 4, 2'-MOE gapmer with PN-PS-PN mixed backbone, 19-mer]
c-raf mRNA expression inhibition (c-raf mRNA): dose dependent manner

A*NT*NG* C*A*T*S TSCSTS GSCSCS CSCSC* A*A*G* G*A* (antisense ATGCATTCTGCCCCCAAGGA; sugars from the 5' end e6 d8 e6, linkages [PN]2 o3 s9 o5 (s phosphorothioate, o phosphodiester), methylation of C not given here) [SEQ ID No 10, 2'-MOE gapmer with PN-PO-PS-PO mixed backbone, 20-mer]
c-raf mRNA expression inhibition (c-raf mRNA): dose dependent manner
